Data published in patent US7488736B2, “Thienopyridinone compounds and methods of treatment” (Epix Delaware, Inc., priority 2004, dated 2009).
Structures can show the parent of a compound that is named as a salt.

System: rats
Test: Spontaneous alternation task (cross maze), spatial working memory
Format: in vivo, rat
Design: number of arm entries: unit not given here
Conditions: 5 mg/kg i.p., 12 minutes on cross maze
Description: Effect of Compound 23 on Spatial Working Memory in the Spontaneous Alternation Task Performance in Rats
Rats have an innate tendency to explore their environment in a systematic way. That is, if a rat chose a certain arm on the first trial in a maze, there is high probability that it will choose a different arm on the second trial. […] The performance in the spontaneous alternation test is highly dependent on spatial working memory capacity and rats with compromised “working memory” cannot retain information regarding places just visited in memory; therefore they show decreased spontaneous alternation. In this study, rats were tested for spontaneous alternation performance on the cross maze. Rats were allowed to explore the maze freely for 12 minutes. An alternation was recorded if a rat entered all four arms within a series of four consecutive entries. Chance performance is 22.5% with this measure.

SMILES | number of arm entries
CC(C)n1c(=O)c(C(=O)NCCCN2CCCCC2)c([O-])c2ccsc21.[K+] [Compound 23, 6,7-Dihydro-4-hydroxy-7-isopropyl-6-oxo-N-(3-(piperidin-1-yl)propyl)thieno[2,3-b]pyridine-5-carboxamide potassium salt] | 30

Same assay, conditions: 5 mg/kg i.p., 12 minutes on cross maze, chance performance 22.5%

SMILES | mean alternation score
CC(C)n1c(=O)c(C(=O)NCCCN2CCCCC2)c([O-])c2ccsc21.[K+] [Compound 23, 6,7-Dihydro-4-hydroxy-7-isopropyl-6-oxo-N-(3-(piperidin-1-yl)propyl)thieno[2,3-b]pyridine-5-carboxamide potassium salt] | 58%±3%

Target: h 5-HT4e Receptor (Homo sapiens, UniProt Q13639)
Test: h 5-HT4e receptor binding affinity assay
Conditions: not given

Chain of h 5-HT4e Receptor (Q13639 1-378 isoform Q13639-5): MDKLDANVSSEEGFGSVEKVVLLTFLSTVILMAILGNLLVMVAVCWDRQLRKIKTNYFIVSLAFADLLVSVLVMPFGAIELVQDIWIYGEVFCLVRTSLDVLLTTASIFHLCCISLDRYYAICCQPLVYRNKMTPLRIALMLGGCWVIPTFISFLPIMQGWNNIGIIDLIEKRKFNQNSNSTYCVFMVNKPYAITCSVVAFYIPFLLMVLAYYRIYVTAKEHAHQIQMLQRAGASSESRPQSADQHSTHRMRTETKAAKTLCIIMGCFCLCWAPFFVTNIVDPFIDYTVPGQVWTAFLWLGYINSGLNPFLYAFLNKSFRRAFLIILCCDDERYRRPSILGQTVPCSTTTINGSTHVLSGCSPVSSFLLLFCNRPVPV

SMILES | Ki
CC1CCN(CCCNC(=O)c2c(O)c3ccsc3n(C(C)C)c2=O)CC1 [Compound 8, 6,7-Dihydro-4-hydroxy-7-isopropyl-N-(3-(4-methylpiperidin-1-yl)propyl)-6-oxothieno[2,3-b]pyridine-5-carboxamide hydrochloride salt] | 65 nM
Cc1sc2c(c1C)c(O)c(C(=O)NCCCN1CCCCC1)c(=O)n2C(C)C [Compound 14, 6,7-Dihydro-2,3-dimethyl-4-hydroxy-7-isopropyl-6-oxo-N-(3-(piperidin-1-yl)propyl)thieno-[2,3-b]pyridine-5-carboxamide hydrochloride salt] | 140 nM
CC(C)Cn1c(=O)c(C(=O)NCCCN2CCCCC2)c(O)c2ccsc21 [Compound 1, 6,7-Dihydro-4-hydroxy-7-isobutyl-6-oxo-N-(3-(piperidin-1-yl)propyl)thieno[2,3-b]pyridine-5-carboxamide hydrochloride salt] | 120 nM
CC(C)n1c(=O)c(C(=O)NCCCN2CCC(F)(F)CC2)c(O)c2ccsc21 [Compound 11, N-(3-(4,4-Difluoropiperidin-1-yl)propyl)-6,7-dihydro-4-hydroxy-7-isopropyl-6-oxothieno[2,3-b]pyridine-5-carboxamide hydrochloride salt] | 220 nM
CC(C)n1c(=O)c(C(=O)NCCCN2[C@H](C)CCC[C@@H]2C)c(O)c2ccsc21 [Compound 13, 6,7-Dihydro-N-(3-((2R,6S)-2,6-dimethylpiperidin-1-yl)propyl)-4-hydroxy-7-isopropyl-6-oxothieno[2,3-b]pyridine-5-carboxamide hydrochloride salt] | 380 nM
CC(C)n1c(=O)c(C(=O)NCCCN2CCC(C)(C)CC2)c(O)c2ccsc21 [Compound 12, 6,7-Dihydro-N-(3-(4,4-dimethylpiperidin-1-yl)propyl)-4-hydroxy-7-isopropyl-6-oxothieno[2,3-b]pyridine-5-carboxamide hydrochloride salt] | 200 nM
CCCn1c(=O)c(C(=O)NCCCN2CCC(C)CC2)c(O)c2ccsc21 [Compound 2, 6,7-Dihydro-4-hydroxy-N-(3-(4-methylpiperidin-1-yl)propyl)-6-oxo-7-propylthieno[2,3-b]pyridine-5-carboxamide hydrochloride salt] | 160 nM

Further lines, results first:

Ki | SMILES
35 nM | CC(C)n1c(=O)c(C(=O)NCCCN2CCCC2)c(O)c2ccsc21 [Compound 6, 6,7-Dihydro-4-hydroxy-7-isopropyl-6-oxo-N-(3-(pyrrolidin-1-yl)propyl)thieno-[2,3-b]pyridine-5-carboxamide hydrochloride salt]
50 nM | CC(C)n1c(=O)c(C(=O)NCCCN2CCC(C(F)(F)F)CC2)c(O)c2ccsc21 [Compound 9, 6,7-Dihydro-4-hydroxy-7-isopropyl-6-oxo-N-(3-(4-(trifluoromethyl)piperidin-1-yl)propyl)thieno[2,3-b]pyridine-5-carboxamide hydrochloride salt]
40 nM | COC(=O)C1CCN(CCCNC(=O)c2c(O)c3ccsc3n(C(C)C)c2=O)CC1 [Compound 10, 6,7-Dihydro-4-hydroxy-7-isopropyl-6-oxo-N-(3-(4-(methoxycarbonyl)piperidin-1-yl)propyl)thieno[2,3-b]pyridine-5-carboxamide hydrochloride salt]
31 nM | COc1c(C(=O)NCCCN2CCCCC2)c(=O)n(C(C)C)c2sccc12 [Compound 16, 6,7-Dihydro-7-isopropyl-4-methoxy-6-oxo-N-(3-(piperidin-1-yl)propyl)thieno[2,3-b]pyridine-5-carboxamide]
36 nM | CCn1c(=O)c(C(=O)NCCCN2CCCCC2)c(O)c2ccsc21 [Compound 3, 6,7-Dihydro-7-ethyl-4-hydroxy-6-oxo-N-(3-(piperidin-1-yl)propyl)thieno[2,3-b]pyridine-5-carboxamide hydrochloride salt]
20 nM | CCn1c(=O)c(C(=O)NCCCN2CCC(C)CC2)c(O)c2ccsc21 [Compound 4, 6,7-Dihydro-7-ethyl-4-hydroxy-N-(3-(4-methylpiperidin-1-yl)propyl)-6-oxothieno[2,3-b]pyridine-5-carboxamide hydrochloride salt]
26 nM | CCC1CCN(CCCNC(=O)c2c(O)c3ccsc3n(CC)c2=O)CC1 [Compound 5, 6,7-Dihydro-7-ethyl-N-(3-(4-ethylpiperidin-1-yl)propyl)-4-hydroxy-6-oxothieno[2,3-b]pyridine-5-carboxamide hydrochloride salt]

System: rats
Test: Reversal of the scopolamine-induced deficit of Morris water maze performance
Format: in vivo, rat
Conditions: scopolamine 1 mg/kg i.p., compound at both 15 mg/kg and 30 mg/kg p.o.
Description: Reversal of the Scopolamine-Induced Deficit of Water Maze Performance in Rats
The Morris Water Maze test is commonly used to study hippocampal-dependent spatial memory acquisition. It consists of a water pool with a hidden escape platform where the rats must learn the location of the platform using either contextual or local cues. […] Lesions of the hippocampus or its cholinergic input impair performance (e.g., by scopolamine) by inducing a performance deficit (latency or time to reach the platform location) in this test without affecting the speed of swimming or other general behaviors in the test animals.

SMILES | decrease in path length to reach the platform | decrease in time to reach the platform
CC(C)n1c(=O)c(C(=O)NCCCN2CCCCC2)c([O-])c2ccsc21.[K+] [Compound 23, 6,7-Dihydro-4-hydroxy-7-isopropyl-6-oxo-N-(3-(piperidin-1-yl)propyl)thieno[2,3-b]pyridine-5-carboxamide potassium salt] | 35-55% | 25-30%

Same assay, conditions: scopolamine pretreatment 1 mg/kg i.p.

SMILES | increase in latency and path length to find the platform compared with vehicle treated rats
CN1[C@@H]2C[C@@H](OC(=O)[C@H](CO)c3ccccc3)C[C@H]1[C@@H]1O[C@@H]12 [scopolamine, reference compound] | ~5 fold
